Measurements published in patent US20070027175A1, “Antineoplastic activities of ellipticine and its derivatives” (priority 2005, published 2007).

Tests used:
[1] = tested on: myeloma cells; test: Velcade sensitivity of myeloma cells without and with stromal co-culture; assay type: cell-based, human
Excerpt: The bone marrow microenvironment augments myelomagenesis and can protect myeloma cells from destruction when patients undergo systemic and supportive therapies. In vitro, via direct cell-cell adhesion or soluble factors generated by […] interactions, myeloma cells are reportedly well protected from chemotherapeutic agents (Nefedova et al., 2001).

[2] = NCI in vivo screening data; cited from earlier work
[3] = tested on: myeloma cell lines engrafted in SCID mice; assay type: in vivo; conditions: 25 and 50 mg/kg/day; Alzet osmotic pumps; 28 days; contemplated
Excerpt: The present invention also examines novel therapeutic approaches for myeloma using experimental animal models. The anti-myeloma efficacy of 9-(Dimethylaminoethoxy)-ellipticine is examined using a panel of myeloma cell lines engrafted in severe combined immunodeficient (SCID) mice. The 3 cell lines are infected with a lentivirus-containing luciferase. Luciferase-expressing myeloma cells can be traced in live animals using the Xenogen IVIS 200 luminescence imaging system. Six to 8 weeks old SCID mice are subcutaneously injected with 10^7 myeloma cells. Tumor growth in live animals is monitored by measuring circulating level of monoclonal human immunoglobulins (hIg) in mice sera using ELISA (Yaccoby et al., 1998; Yang et al., 2002) and through imaging of tumor cells luminescence intensity. The tumor growth is detected within one week by ELISA and within 1-3 weeks by imaging.
Upon establishment of myeloma growth as determined by both methods, mice are randomly divided into 3 groups; one control and 2 treated with different doses of 9-(Dimethylaminoethoxy)-ellipticine (8 mice/group for each cell line). Mice are implanted with Alzet osmotic pumps delivering 0.25 μl of drug solution per hour for 28 days. The daily doses are 25 and 50 mg/kg/day. Control animals have pumps loaded with buffer (PBS) only. At the experiments' end, mice are subjected to imaging analysis, bled and sacrificed. […]

[4] = tested on: 12 myeloma cell lines (Ark, BW288, CAG, Delta47, DF15, JJN3, kms11, L363, opm2, RPMI8226, U266 and XG1); test: Comparative study with existing anti-myeloma drugs (CellTiter-Glo); assay type: cell-based, human; set-up: time to inhibition of cell proliferation: dose or concentration left out as unconfirmed
Excerpt: The results obtained from these controls are pooled together in the figure (●). The dose of each compound was set […].
Comparative study of NSC 338258 with existing anti-myeloma drugs Myeloma cell lines were exposed to NSC 338258 and existing anti myeloma drugs, Adriamycin® (Doxorubicin Hydrochloride) and Etoposide (VP-16-213) in ninety six well culture plates. The concentration of each compound was set […]. […] The cell growth was near zero in the following days (day 4 onwards; FIG. 6). It was also observed that 12 myeloma cell lines (Ark, BW288, CAG, Delta47, DF15, JJN3, kms11, L363, opm2, RPMI8226, U266 and XG1) responded to the same dosage (0.2 μM) of NSC 338258, VP-16-213 and Adriamycin in 5 days.

[5] = tested on: Ark myeloma cell line; test: CellTiter-Glo luminescent cell viability assay, Ark; assay type: cell-based, human; set-up: unit of the concentration uncertain
Description: (§1) The dosage of each derivative was set at 2, 0.2 and 0.02 mM. A cell culture medium control and 0.5% DMSO control was maintained in each experiment. The cell viability was tested each day over a period of five days using the CellTiter-Glo luminescent cell viability assay kit from Promega Co.
(§2) Cell Titer-Glo luminescent cell viability assay kit from Promega Co (Madison, Wis.) was used to determine cell growth inhibition by the various compounds tested. The kit determines cell viability by quantifying the amount of ATP present in the cell culture medium. Presence of ATP signals the presence of metabolically active cells (3). The intensity of luminescence was measured by a computerized luminometer (Promega, Co. Madison, Wis.). Each well was read five times within 30 minutes of adding Cell Titer-Glo reagent mixture.
(§3) Cells were contacted with the antineoplastic agents in ninety six well culture plates. The concentration of each neoplastic agent was maintained a constant. A cell culture medium control and 0.5% DMSO control were maintained in each set of experiments. The cell viability was tested every day using the CellTiter-Glo luminescent cell viability kit from Promega Co. (Madison, Wis.) for a period of five days.

[6] = tested on: Fetal bone mesenchymal cells; test: Selectivity: viability of normal fetal bone mesenchymal cells (CellTiter-Glo); assay type: cell-based, human; conditions: 0.01-1.0 mM; five days
Description: The cell viability was tested every day for a period of five days. It was observed that these cells were not killed by the concentrations that were otherwise toxic to the myeloma cells.
Fetal bone mesenchymal cells were contacted with NSC 338258 in ninety six well culture plates. The concentrations of NSC 338258 were set at 0.01, 0.03. 0.1, 0.3 and 1.0 mM (FIG. 7).

[7] = tested on: CAG myeloma cell line; test: CellTiter-Glo luminescent cell viability assay, CAG; assay type: cell-based, human; set-up: unit of the concentration uncertain
Description: as §1, §2, §3

SMILES: CC(C)C[C@H](NC(=O)[C@H](Cc1ccccc1)NC(=O)c1cnccn1)B(O)O [Velcade, bortezomib, reference compound]
- effective low dose ([1]; absence of stromal cells): 4 nM
- reduction in sensitivity ([1]; co-culture versus absence of stromal cells, data not shown): more than 100 fold
- tolerance of myeloma cells to Velcade ([1]; co-culture with human fetal bone mesenchymal cells, data not shown): up to 500 nM

SMILES: Cc1c2ccncc2c(C)c2c1[nH]c1ccc(OCCN(C)C)cc12 [NSC 338258, ellipticine, 9-dimethyl amino-ethoxy-]
- dosages for animals surviving the toxicity of the compounds [2]: 25.0 mg/kg body weight
- inhibition of myeloma cell growth in vivo [3]: effectively inhibits myeloma cell growth in vivo
- time to inhibition of cell proliferation [4]: ≤ 24 h
- response of 12 myeloma cell lines ([4]; 0.2 μM, in 5 days): responded
- cell viability (CellTiter-Glo luminescent assay) ([5]; 0.02 (unit uncertain), Day 1): 99,050
- cell viability (CellTiter-Glo luminescent assay) ([5]; 0.02 (unit uncertain), Day 2): 187,835
- cell viability (CellTiter-Glo luminescent assay) ([5]; 0.02 (unit uncertain), Day 3): 297,927
- cell viability (CellTiter-Glo luminescent assay) ([5]; 0.02 (unit uncertain), Day 4): 764,382
- cell viability (CellTiter-Glo luminescent assay) ([5]; 0.02 (unit uncertain), Day 5): 982,255
- cell viability (CellTiter-Glo luminescent assay) ([5]; 0.2 (unit uncertain), Day 1): 1,085
- cell viability (CellTiter-Glo luminescent assay) ([5]; 0.2 (unit uncertain), Day 2): 489
- cell viability (CellTiter-Glo luminescent assay) ([5]; 0.2 (unit uncertain), Day 3): 384
- cell viability (CellTiter-Glo luminescent assay) ([5]; 0.2 (unit uncertain), Day 4): 530
- cell viability (CellTiter-Glo luminescent assay) ([5]; 0.2 (unit uncertain), Day 5): 376
- cell viability (CellTiter-Glo luminescent assay) ([5]; 2 (unit uncertain), Day 1): 523
- cell viability (CellTiter-Glo luminescent assay) ([5]; 2 (unit uncertain), Day 2): 342
- cell viability (CellTiter-Glo luminescent assay) ([5]; 2 (unit uncertain), Day 3): 366
- cell viability (CellTiter-Glo luminescent assay) ([5]; 2 (unit uncertain), Day 4): 478
- cell viability (CellTiter-Glo luminescent assay) ([5]; 2 (unit uncertain), Day 5): 299
- killing of fetal bone derived normal mesenchymal cells [6]: not killed
- cell viability (CellTiter-Glo luminescent assay) ([7]; 0.02 (unit uncertain), Day 1): 173,140
- cell viability (CellTiter-Glo luminescent assay) ([7]; 0.02 (unit uncertain), Day 2): 383,737
- cell viability (CellTiter-Glo luminescent assay) ([7]; 0.02 (unit uncertain), Day 3): 780,458
- cell viability (CellTiter-Glo luminescent assay) ([7]; 0.02 (unit uncertain), Day 4): 1,670,491
- cell viability (CellTiter-Glo luminescent assay) ([7]; 0.02 (unit uncertain), Day 5): 3,108,577
- cell viability (CellTiter-Glo luminescent assay) ([7]; 0.2 (unit uncertain), Day 1): 103,658
- cell viability (CellTiter-Glo luminescent assay) ([7]; 0.2 (unit uncertain), Day 2): 105,998
- cell viability (CellTiter-Glo luminescent assay) ([7]; 0.2 (unit uncertain), Day 3): 111,306
- cell viability (CellTiter-Glo luminescent assay) ([7]; 0.2 (unit uncertain), Day 4): 123,316
- cell viability (CellTiter-Glo luminescent assay) ([7]; 0.2 (unit uncertain), Day 5): 64,052
- cell viability (CellTiter-Glo luminescent assay) ([7]; 2 (unit uncertain), Day 1): 76,441
- cell viability (CellTiter-Glo luminescent assay) ([7]; 2 (unit uncertain), Day 2): 39,273
- cell viability (CellTiter-Glo luminescent assay) ([7]; 2 (unit uncertain), Day 3): 23,807
- cell viability (CellTiter-Glo luminescent assay) ([7]; 2 (unit uncertain), Day 4): 19,546
- cell viability (CellTiter-Glo luminescent assay) ([7]; 2 (unit uncertain), Day 5): 5,483
